Columns and labels:
[1] = ORAC assay adapted for the linoleate microemulsion system (relative ORAC, synergy)
Protocol: Synergistic effects of bioactive compounds combined with alpha-tocopherol. […] An OBS microplate was prepared with duplicate wells of Trolox solution standards (20 μL; 500, 250, 125, 62.5, or 31.25 μM) and triplicate wells of samples diluted in phosphate buffer (20 μL). The perimeter wells were not used for kinetic studies to avoid potential edge effects. The oxidation substrate, methyl linoleate microemulsion (200 μL), was then added. […] A control well containing 200 μL of microemulsion and 40 μL of phosphate buffer was used to normalize the fluorescence reading. The reaction kinetics were monitored at 37° C. for 2 h, with readings every 2 min, by a Synergy HT microplate fluorescent reader (Biotek Instruments Inc.). The microplate reader was fitted with an excitation filter at 485 nm, an emission filter of 590 nm, and an oxygen sensor biosystem, and the plate was shaken for 20 s at low intensity before each reading to ensure sufficient mixing. After normalization, the fluorescence data were converted to the oxygen concentration at each point of the reaction. The ORAC values of samples were determined as previously described ([…]. et al., Journal of Agricultural and Food Chemistry 2009, 57, 3409-3414).

human adipocytes = test: Glucose uptake (3H-2-deoxyglucose) in adipocytes; type: cell-based; details: 100 nM insulin (positive control)
Protocol: (§1) Glucose uptake. […] Briefly, primary human subcutaneous adipocytes or primary human myoblasts were differentiated in 96-well microplates. […] All samples, including the positive and negative controls, were tested in triplicate. After a 2-h incubation at 37° C. and 5% CO2, the cells were washed with PBS and lysed. The cell lysate was mixed with scintillation fluid and radioactivity of each well was measured as counts per minute (CPM).

[2] = test system: human skeletal muscle cells; test: Glucose uptake (3H-2-deoxyglucose) in skeletal muscle cells; type: cell-based; details: 100 nM insulin (positive control)
Protocol: as §1

Row | Compound | Antioxidant effect in combination with α-tocopherol [1] | Increase in glucose uptake (human adipocytes) [fold] | Increase in glucose uptake [2] [fold]
1 | O=C1O[C@H]([C@@H](O)CO)C(O)=C1O [ascorbic acid] | additive |  | 
2 | Oc1cc(O)c2c(c1)O[C@H](c1ccc(O)c(O)c1)[C@@H](O)C2 [catechin, Catechin] | synergistic |  | 
3 | O=C(/C=C/c1ccc(O)c(O)c1)O[C@@H]1C[C@](O)(C(=O)O)C[C@@H](O)[C@H]1O [chlorogenic acid] | synergistic |  | 
4 | insulin |  | 1.6 | 2.06

Source: US20130261136A1, “COFFEE EXTRACTS AS INGREDIENTS OF FOODS, DRUGS, COSMETICS, DIETARY SUPPLEMENTS, AND BIOLOGICS” (priority 2010, published 2013)
